# Assay results published in US7276511B2, “Benzylamine derivative” (Zeria Pharmaceutical Co., Ltd., priority 2003, dated 2007).
# Structures can show the parent of a compound that is named as a salt.
# Biological target: T1, Cloned Neurokinin Receptor Subtype 2 Human (Homo sapiens, UniProt P21452)
# T1 construct: purchased Biosignal Packard; host or cells: CHO cells
# T1 sequence (P21452 1-398): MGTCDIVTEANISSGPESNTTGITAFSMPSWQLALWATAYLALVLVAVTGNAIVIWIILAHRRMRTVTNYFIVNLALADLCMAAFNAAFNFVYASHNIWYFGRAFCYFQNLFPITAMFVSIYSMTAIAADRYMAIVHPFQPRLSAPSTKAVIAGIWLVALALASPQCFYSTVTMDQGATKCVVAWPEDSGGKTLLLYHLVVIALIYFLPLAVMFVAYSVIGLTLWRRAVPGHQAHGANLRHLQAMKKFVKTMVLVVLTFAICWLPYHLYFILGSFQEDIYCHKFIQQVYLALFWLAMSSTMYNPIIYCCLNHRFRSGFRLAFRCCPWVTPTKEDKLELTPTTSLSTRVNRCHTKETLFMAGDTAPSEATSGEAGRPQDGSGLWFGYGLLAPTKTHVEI
# Assay: NK-2 receptor-binding experiment ([3H]-SR48968, CHO cell membranes)
# Settings: Table 3; inhibition of [3H]-SR48968 (0.85 nM) binding, pseudo-Hill analysis
# Protocol: 2. NK-2 Receptor-binding Experiment
# Cloned Neurokinin Receptor Subtype 2 Human (CHO cells, Biosignal Packard), [^3H]-SR48968 (Amersham, final concentration 0.85 nM), and a test compound were mixed with 20 mM HEPES buffer, and the mixture was incubated for 50 minutes at 27° C. After completion of incubation, membrane components were collected by means of an automatic filtration apparatus (Brandel) onto a GF/C glass fiber filter (Whatman).
# Before use, in order to prevent non-specific binding, the glass fiber filter had been pre-treated with 0.1% polyethylene imine solution for about 4 hours.
# The filter employed to collect the membrane components was transferred to a plastic vial containing UltimaGold MV (5 mL), and measured by means of a liquid scintillation counter (Packard, 2000CA) in terms of the radioactivity.
# Percent radioactive ligand-receptor binding inhibition of each test compound was calculated by use of the following equation, and IC50 (nM) was determined through pseudo-Hill analysis.
# Percent inhibition (%)=[1−(C−A)/(B−A)]×100
# A: Radioactivity attributed to non-specific binding
# B: Radioactivity without test compound
# C: Radioactivity with test compound
row,SMILES,IC50 [nM]
1,"CCN(C(=O)C(=O)N(C)[C@](CCN1CCC2(CC1)NC(=O)Cc1ccccc12)(CN(C)C(=O)CC(F)(F)F)c1ccc(Cl)c(Cl)c1)c1ccccc1 [Compound No. 41, N^1-{1-(3,3,3-trifluoro-N-methylpropanamido)-2-(S)-(3,4-dichlorophenyl)-4-[3-oxo-3,4-dihydro-2H-spiro(isoquinoline-1,4′-piperidin)-1′-yl]butan-2-yl}-N^1-methyl-N^2-ethyl-N^2-phenyloxalamide hydrochloride]",0.84
2,"CN(C[C@](CCN1CCC2(CC1)c1ccccc1C[S@+]2[O-])(c1ccc(Cl)c(Cl)c1)N(C)C(=O)c1ccccc1F)C(=O)CC(F)(F)F [Compound No. 30, N-{1-(3,3,3-trifluoro-N-methylpropanamido)-2-(S)-(3,4-dichlorophenyl)-4-[spiro(benzo(c)thiophene-(2S)-oxido-1(3H),4′-piperidin)-1′-yl]butan-2-yl}-N-methyl-2-fluorobenzamide hydrochloride]",1.2
3,"CN(C[C@](CCN1CCC2(CC1)NC(=O)Cc1ccccc12)(c1ccc(Cl)c(Cl)c1)N(C)C(=O)C(=O)N(C)c1ccccc1)C(=O)CC(F)(F)F [Compound No. 27, N^1-{1-(3,3,3-trifluoro-N-methylpropanamido)-2-(S)-(3,4-dichlorophenyl)-4-[3-oxo-3,4-dihydro-2H-spiro(isoquinoline-1,4′-piperidin)-1′-yl]butan-2-yl}-N^1,N^2-dimethyl-N^2-phenyloxalamide hydrochloride]",6.7
4,"CN(CC(CCN1CCC2(CC1)c1ccccc1CS2(=O)=O)(c1ccc(Cl)c(Cl)c1)N(C)C(=O)NC(c1ccccc1)c1ccccc1)C(=O)C(F)F (stereo not shown) [Compound No. 11, N-[2-(3-Benzhydryl-1-methyl-ureido)-2-(3,4-dichloro-phenyl)-4-{spiro[benzo(c)thiophene-1(3H),4′-piperidine]-2,2-dioxido}-1′-yl-butyl]-2,2-difluoro-N-methyl-acetamide hydrochloride]",8.1
5,"CN(CC(CCN1CCC2(CC1)c1ccccc1C[S+]2[O-])(c1ccc(Cl)c(Cl)c1)N(C)C(=O)Cc1ccccc1)C(=O)CC(F)(F)F [Compound No. 14, N-[2-(3,4-Dichloro-phenyl)-2-(methyl-phenylacetyl-amino)-4-{spiro[benzo(c)thiophene-1(3H),4′-piperidine]-(2S)-oxido}-1′-yl-butyl]-3,3,3-trifluoro-N-methyl-propionamide hydrochloride]",0.34
6,"CCN(C(=O)C(=O)N(C)[C@](CCN1CCC2(CC1)c1ccccc1C[S@+]2[O-])(CN(C)C(=O)CC(F)(F)F)c1ccc(Cl)c(Cl)c1)c1ccccc1 [Compound No. 25, N^1-{1-(3,3,3-trifluoro-N-methylpropanamido)-2-(S)-(3,4-dichlorophenyl)-4-[spiro(benzo(c)thiophene-(2S)-oxido-1(3H),4′-piperidin)-1′-yl]butan-2-yl}-N^1-methyl-N^2-ethyl-N^2-phenyloxalamide hydrochloride]",0.58
7,"CCN(C(=O)C(=O)N(C)[C@](CCN1CCC2(CC1)NC(=O)Cc1ccccc12)(CN(C)C(=O)C(C)(C)C)c1ccc(Cl)c(Cl)c1)c1ccccc1 [Compound No. 38, N^1-{1-(N-methyl-trimethylacetamide)-2-(S)-(3,4-dichlorophenyl)-4-[3-oxo-3,4-dihydro-2H-spiro(isoquinoline-1,4′-piperidin)-1′-yl]butan-2-yl}-N^1-methyl-N^2-ethyl-N^2-phenyloxalamide hydrochloride]",1.9
8,"CCN(C(=O)C(=O)N(C)[C@](CCN1CCC2(CC1)c1ccccc1C[S@+]2[O-])(CN(C)C(=O)C(C)C)c1ccc(Cl)c(Cl)c1)c1ccccc1 [Compound No. 39, N^1-{1-(N-methylisobutylamide)-2-(S)-(3,4-dichlorophenyl)-4-[spiro(benzo(c)thiophene-(2S)-oxido-1(3H),4′-piperidin)-1′-yl]butan-2-yl}-N^1-methyl-N^2-ethyl-N^2-phenyloxalamide hydrochloride]",1
9,"CN(C[C@](CCN1CCC2(CC1)NC(=O)Cc1ccccc12)(c1ccc(Cl)c(Cl)c1)N(C)C(=O)c1ccccc1)C(=O)CC(F)(F)F [Compound No. 22, N-{1-(3,3,3-trifluoro-N-methylpropanamido)-2-(S)-(3,4-dichlorophenyl)-4-[3-oxo-3,4-dihydro-2H-spiro(isoquinoline-1,4′-piperidin)-1′-yl]butan-2-yl}-N-methylbenzamide hydrochloride]",0.95
10,"CN(CC(CCN1CCC2(CC1)c1ccccc1C[S+]2[O-])(c1ccc(Cl)c(Cl)c1)N(C)C(=O)c1ccccc1)C(=O)CC(F)(F)F [Compound No. 13, N-{1-(3,4-Dichloro-phenyl)-1-{[methyl-(3,3,3-trifluoro-propionyl)-amino]-methyl}-3-{spiro[benzo(c)thiophene-1(3H),4′-piperidine]-(2S)-oxido}-1′-yl-propyl}-N-methyl-benzamide hydrochloride]",2.6
11,"CCC(=O)N(C)C[C@](CCN1CCC2(CC1)c1ccccc1C[S@+]2[O-])(c1ccc(Cl)c(Cl)c1)N(C)C(=O)C(=O)N(C)c1ccccc1 [Compound No. 35, N^1-{1-(N-methyl-propionamide)-2-(S)-(3,4-dichlorophenyl)-4-[spiro(benzo(c)thiophene-(2S)-oxido-1(3H),4′-piperidin)-1′-yl]butan-2-yl}-N^1,N^2-dimethyl-N^2-phenyloxalamide hydrochloride]",4.6
12,"CCN(C(=O)C(=O)N(C)[C@](CCN1CCC2(CC1)NC(=O)Cc1ccccc12)(CN(C)C(=O)C(C)C)c1ccc(Cl)c(Cl)c1)c1ccccc1 [Compound No. 40, N^1-{1-(N-methylisobutylamide)-2-(S)-(3,4-dichlorophenyl)-4-[3-oxo-3,4-dihydro-2H-spiro(isoquinoline-1,4′-piperidin)-1′-yl]butan-2-yl}-N^1-methyl-N^2-ethyl-N^2-phenyloxalamide hydrochloride]",0.73
13,"CN(C[C@](CCN1CCC2(CC1)c1ccccc1CS2(=O)=O)(c1ccc(Cl)c(Cl)c1)N(C)C(=O)Cc1ccccc1)C(=O)CC(F)(F)F [Compound No. 28, N-(1-(3,3,3-trifluoro-N-methylpropanamido)-2-(S)-(3,4-dichlorophenyl)-4-[spiro(benzo(c)thiophene-2,2-dioxido-1(3H),4′-piperidin)-1′-yl]butan-2-yl}-N-methyl-phenylacetamide hydrochloride]",2.6
14,"CN(CC(CCN1CCC2(CC1)c1ccccc1C[S@+]2[O-])(c1ccc(Cl)c(Cl)c1)N(C)C(=O)C(=O)N(C)c1ccccc1)C(=O)CC(F)(F)F (single isomer, unassigned) [Compound No. 10]",4.1
15,"CCC(=O)N(C)C[C@](CCN1CCC2(CC1)c1ccccc1C[S@+]2[O-])(c1ccc(Cl)c(Cl)c1)N(C)C(=O)c1ccccc1 [Compound No. 34, N-{1-(N-methyl-propionamide)-2-(S)-(3,4-dichlorophenyl)-4-[spiro(benzo(c)thiophene-(2S)-oxido-1(3H),4′-piperidin)-1′-yl]butan-2-yl}-N-methylbenzamide hydrochloride]",0.96
16,"CC(=O)N(C)C[C@](CCN1CCC2(CC1)NC(=O)Cc1ccccc12)(c1ccc(Cl)c(Cl)c1)N(C)C(=O)c1ccccc1 [Compound No. 36, N-{1-(N-methyl-acetamide)-2-(S)-(3,4-dichlorophenyl)-4-[3-oxo-3,4-dihydro-2H-spiro(isoquinoline-1,4′-piperidin)-1′-yl]butan-2-yl}-N-methylbenzamide hydrochloride]",0.85
